Data: ChEMBL document CHEMBL5316327, “Design and Synthesis of Orally Active Quinolyl Pyrazinamides as Sigma 2 Receptor Ligands for the Treatment of Pancreatic Cancer” (J Med Chem, 2023)
The source made the active and inactive calls. The rule behind the calls is not given here.

Experiments:
MIA PaCa-2 [1] = experiment: Induction of apoptosis in human MIA PaCa-2 cells assessed as viable cells at 1.0 uM measured after 48 hrs by Annexin V-Alexa Fluor 488/propidium iodide staining based flow cytometry (reference value: 82.23%); assay type: functional; conditions: read-out: Activity
D(1A) dopamine receptor = D(1A) dopamine receptor (Homo sapiens, UniProt P21728); experiment: Binding affinity to dopamine D1 receptor (unknown origin) assessed as inhibition constant
[2] = target: 5-hydroxytryptamine receptor 2B (Homo sapiens, UniProt P41595); experiment: Binding affinity to 5-HT2B receptor (unknown origin) assessed as inhibition constant
[3] = Metabolic stability in human liver microsomes assessed as half life at 10 uM measured upto 60 mins in presence of NADPH by LC-MS/MS analysis; assay type: ADME, Microsome; conditions: liver microsomes
[4] = Cytotoxicity against HPDE cells measured after 72 hrs by MTT assay; assay type: toxicity, cell-based; conditions: human
MIA PaCa-2 [5] = experiment: Induction of apoptosis in human MIA PaCa-2 cells assessed as viable cells at 10.0 uM measured after 48 hrs by Annexin V-Alexa Fluor 488/propidium iodide staining based flow cytometry (reference value: 82.23%); assay type: functional; conditions: read-out: Activity
MIA PaCa-2 [6] = experiment: Induction of apoptosis in human MIA PaCa-2 cells assessed as early apoptotic cells at […] measured after 48 hrs by Annexin V-Alexa Fluor 488/propidium iodide staining based flow cytometry (reference value: 4.11%); assay type: functional; conditions: dose 2.5 µM
MIA PaCa-2 [7] = experiment: Induction of apoptosis in human MIA PaCa-2 cells assessed as early apoptotic cells at 10.0 uM measured after 48 hrs by Annexin V-Alexa Fluor 488/propidium iodide staining based flow cytometry (reference value: 4.11%); assay type: functional
MIA PaCa-2 [8] = experiment: Induction of apoptosis in human MIA PaCa-2 cells assessed as necrotic cells at 1.0 uM measured after 48 hrs by Annexin V-Alexa Fluor 488/propidium iodide staining based flow cytometry (reference value: 7.03%); assay type: functional
MIA PaCa-2 [9] = experiment: Induction of apoptosis in human MIA PaCa-2 cells assessed as necrotic cells at 5.0 uM measured after 48 hrs by Annexin V-Alexa Fluor 488/propidium iodide staining based flow cytometry (reference value: 7.03%); assay type: functional
HCT-116 [10] = experiment: Induction of apoptosis in human HCT-116 cells assessed as early apoptotic cells at 5.0 uM measured after 48 hrs by Annexin V-Alexa Fluor 488/propidium iodide staining based flow cytometry (reference value: 2.77%); assay type: functional
HCT-116 [11] = experiment: Induction of apoptosis in human HCT-116 cells assessed as late apoptotic cells at […] measured after 48 hrs by Annexin V-Alexa Fluor 488/propidium iodide staining based flow cytometry (reference value: 8.48%); assay type: functional; conditions: dose 2.5 µM
HCT-116 [12] = experiment: Induction of apoptosis in human HCT-116 cells assessed as necrotic cells at 1.0 uM measured after 48 hrs by Annexin V-Alexa Fluor 488/propidium iodide staining based flow cytometry (reference value: 9.06%); assay type: functional
MIA PaCa-2 [13] = experiment: Induction of cell cycle arrest in human MIA PaCa-2 cells assessed as accumulation of cells in G0/G1 phase at 5 uM measured after 24 hrs by propidium iodide staining-based flow cytometric analysis (reference value: 53%); assay type: functional
MIA PaCa-2 [14] = experiment: Induction of cell cycle arrest in human MIA PaCa-2 cells assessed as accumulation of cells in G2/M phase at […] measured after 24 hrs by propidium iodide staining-based flow cytometric analysis (reference value: 16%); assay type: functional; conditions: dose 2.5 µM
MIA PaCa-2 [15] = experiment: Induction of cell cycle arrest in human MIA PaCa-2 cells assessed as accumulation of cells in G2/M phase at 5 uM measured after 24 hrs by propidium iodide staining-based flow cytometric analysis (reference value: 16%); assay type: functional
HCT-116 [16] = experiment: Induction of cell cycle arrest in human HCT-116 cells assessed as accumulation of cells in G0/G1 phase at […] measured after 24 hrs by propidium iodide staining-based flow cytometric analysis (reference value: 43%); assay type: functional; conditions: dose 2.5 µM
HCT-116 [17] = experiment: Induction of cell cycle arrest in human HCT-116 cells assessed as accumulation of cells in G2/M phase at 1 uM measured after 24 hrs by propidium iodide staining-based flow cytometric analysis (reference value: 10%); assay type: functional
HCT-116 [18] = experiment: Induction of cell cycle arrest in human HCT-116 cells assessed as accumulation of cells in G2/M phase at […] measured after 24 hrs by propidium iodide staining-based flow cytometric analysis (reference value: 10%); assay type: functional; conditions: dose 2.5 µM
[19] = Cmax in CD-1 mouse plasma at 20 mg/kg, po; assay type: ADME, organism-based; design: dose 20 mg/kg, route po
[20] = Half life in CD-1 mouse plasma at 10 mg/kg, iv; assay type: ADME, organism-based
[21] = Apparent volume of distribution during terminal phase in CD-1 mouse plasma at 20 mg/kg, po; assay type: ADME, organism-based; conditions: read-out: Vz/F
[22] = Toxicity in C57BL/6 mouse assessed as effect on body weight at 60 mg/kg, ip measured upto 28 days; assay type: organism-based; conditions: in vivo, 672 h, time < 28 day
Panc02 [23] = experiment: Antitumor activity against mouse Panc02 cells xenografted in C57BL/6 mouse model assessed as delayed tumor growth at 30 mg/kg, po administered daily for 32 days in presence of copper sulfate by caliper method; assay type: functional, organism-based; conditions: time 32.0 day
MIA PaCa-2 [24] = experiment: Additive cytotoxicity against human MIA PaCa-2 cells at upto 1 uM measured after 7 days in presence of copper chloride by crystal violet staining based analysis; assay type: functional, cell-based; conditions: time 7.0 day
MIA PaCa-2 [25] = experiment: Synergistic cytotoxicity against human MIA PaCa-2 cells at upto 1 uM measured after 7 days in presence of copper chloride by crystal violet staining based analysis; assay type: functional, cell-based; conditions: time 7.0 day
MIA PaCa-2 [26] = experiment: Synergistic cytotoxicity against human MIA PaCa-2 cells at upto 1 uM measured after 7 days in presence of ammonium tetrathiomolybdate by crystal violet staining based analysis; assay type: functional, cell-based; conditions: time 7.0 day
HCT-116 [27] = experiment: Synergistic cytotoxicity against human HCT-116 cells at upto 1 uM measured after 6 days in presence of gold acetate by crystal violet staining based analysis; assay type: functional, cell-based; conditions: time 6.0 day
HCT-116 [28] = experiment: Inhibition of colony formation in human HCT-116 cells at 0.04 to 30 uM pretreated with ammonium tetrathiomolybdate for 4 hrs followed by compound addition and measured after 6 days; assay type: functional, cell-based; conditions: dose 0.04-30 µM, time 6.0 day
MIA PaCa-2 [29] = experiment: Synergistic ferroptosis activity in human MIA-PaCa-2 cells at upto 1 uM measured after 7 days in presence of FIN56 by crystal violet staining based analysis; assay type: functional, cell-based; conditions: time 7.0 day
MIA PaCa-2 [30] = experiment: Synergistic ferroptosis activity in human MIA-PaCa-2 cells at upto 1 uM measured after 7 days in presence of chloroquine by crystal violet staining based analysis; assay type: functional, cell-based; conditions: time 7.0 day
MIA PaCa-2 [31] = experiment: Additive cytotoxicity in human MIA PaCa-2 cells at upto 1 uM measured after 24 hrs in presence of roluperidone; assay type: functional, cell-based
MIA PaCa-2 [32] = experiment: Synergistic cytotoxicity in human MIA PaCa-2 cells at upto 1 uM measured after 7 days in presence of vemurafenib by crystal violet staining based analysis; assay type: functional, cell-based; conditions: time 7.0 day
MIA PaCa-2 [33] = experiment: Synergistic cytotoxicity in human MIA PaCa-2 cells at upto 1 uM measured after 7 days in presence of CI-27 by crystal violet staining based analysis; assay type: functional, cell-based; conditions: time 7.0 day
PANC-1 = experiment: cells; conditions: Homo sapiens, PANC-1, 72 h
Panc02 [34] = experiment: cells; conditions: Mus musculus, Panc02, 72 h

D(1A) dopamine receptor, sequence (P21728 whole entry): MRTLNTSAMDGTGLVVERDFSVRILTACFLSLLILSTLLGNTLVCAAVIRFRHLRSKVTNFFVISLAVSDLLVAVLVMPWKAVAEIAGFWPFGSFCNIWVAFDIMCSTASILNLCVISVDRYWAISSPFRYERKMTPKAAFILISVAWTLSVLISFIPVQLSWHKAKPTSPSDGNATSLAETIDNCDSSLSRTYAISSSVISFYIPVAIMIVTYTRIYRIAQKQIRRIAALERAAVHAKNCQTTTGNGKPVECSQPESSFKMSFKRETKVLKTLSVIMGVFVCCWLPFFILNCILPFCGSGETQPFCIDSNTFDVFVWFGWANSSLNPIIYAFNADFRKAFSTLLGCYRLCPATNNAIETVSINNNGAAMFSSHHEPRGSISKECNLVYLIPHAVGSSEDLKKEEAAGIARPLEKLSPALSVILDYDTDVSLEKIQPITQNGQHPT
5-hydroxytryptamine receptor 2B, sequence (P41595 whole entry): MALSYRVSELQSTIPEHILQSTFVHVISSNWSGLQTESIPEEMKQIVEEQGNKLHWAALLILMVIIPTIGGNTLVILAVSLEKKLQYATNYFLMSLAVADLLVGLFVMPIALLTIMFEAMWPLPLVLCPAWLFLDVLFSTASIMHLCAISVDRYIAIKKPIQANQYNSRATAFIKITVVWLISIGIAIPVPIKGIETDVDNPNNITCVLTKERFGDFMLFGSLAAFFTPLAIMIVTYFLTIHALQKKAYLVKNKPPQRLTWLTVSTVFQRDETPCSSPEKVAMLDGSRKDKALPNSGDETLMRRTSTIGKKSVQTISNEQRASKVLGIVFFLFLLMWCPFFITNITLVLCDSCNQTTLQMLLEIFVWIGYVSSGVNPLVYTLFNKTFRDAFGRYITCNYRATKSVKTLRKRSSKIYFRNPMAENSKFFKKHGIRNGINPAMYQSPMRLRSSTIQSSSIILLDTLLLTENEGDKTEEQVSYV

For CCN(CC)CCCC(C)Nc1cnc(C(=O)Nc2ccc(Cl)c3cccnc23)cn1 (stereo unspecified), which viability at 1 µM (MIA PaCa-2 [1]) is on record?
Its viability at 1 µM is 54.6%.

And the Ki (D(1A) dopamine receptor)?
Its Ki is 1440 nM.

And the Ki [2]?
The Ki was 427 nM.

And the half-life at 10 µM [3]?
Its half-life at 10 µM is > 1 h.

And the IC50 at 72 h [4]?
Its IC50 at 72 h is 300 nM.

What about the viability at 10 µM (MIA PaCa-2 [5]) of the same compound?
Its viability at 10 µM is 6.27%.

And the Activity (MIA PaCa-2 [6])?
The Activity was 13.89%.

And the Activity (MIA PaCa-2 [7])?
Its Activity is 32.58%.

And the Activity (MIA PaCa-2 [8])?
Its Activity is 3.16%.

And the Activity (MIA PaCa-2 [9])?
The Activity was 5.32%.

What about the Activity (HCT-116 [10]) of the same compound?
The Activity was 12.38%.

What about the Activity (HCT-116 [11]) of the same compound?
Its Activity is 20.26%.

And the Activity (HCT-116 [12])?
Its Activity is 9.72%.

And the Activity (MIA PaCa-2 [13])?
The Activity was 61%.

And the Activity (MIA PaCa-2 [14])?
Its Activity is 16%.

And the Activity (MIA PaCa-2 [15])?
The Activity was 17%.

And the Activity (HCT-116 [16])?
Its Activity is 48%.

And the Activity (HCT-116 [17])?
Its Activity is 25%.

What about the Activity (HCT-116 [18]) of the same compound?
The Activity was 19%.

What about the Cmax [19] of the same compound?
The Cmax was 254 ng/mL.

What about the half-life [20] of the same compound?
The half-life was 4.7 h.

And the Vd/F [21]?
Its Vd/F is 51.8 L/kg.

What about the Activity [22] of the same compound?
Its Activity is “Non-Toxic”.

What about the Activity (Panc02 [23]) of the same compound?
The Activity was “Active”.

And the Activity (MIA PaCa-2 [24])?
Its Activity is “Active”.

What about the Activity (MIA PaCa-2 [25]) of the same compound?
Its Activity is “Active”.

And the Activity (MIA PaCa-2 [26])?
The Activity was “inactive”.

What about the Activity (HCT-116 [27]) of the same compound?
The Activity was “inactive”.

And the inhibition (HCT-116 [28])?
Its inhibition is “inactive”.

What about the Activity (MIA PaCa-2 [29]) of the same compound?
Its Activity is “Active”.

And the Activity (MIA PaCa-2 [30])?
Its Activity is “Active”.

What about the Activity (MIA PaCa-2 [31]) of the same compound?
Its Activity is “Active”.

And the Activity (MIA PaCa-2 [32])?
Its Activity is “inactive”.

What about the Activity (MIA PaCa-2 [33]) of the same compound?
The Activity was “inactive”.

What about the IC50 (PANC-1) of the same compound?
Its IC50 is 4000 nM.

And the IC50 (Panc02 [34])?
Its IC50 is 3700 nM.
